Assay results reported in patent publication US20130053435A1, “Methods of Treating Alcohol Intoxication, Alcohol Use Disorders and Alcohol Abuse Which Comprises the Administration of Dihydromyricetin” (priority 2011, published 2013).
Where “and” joins values, the source holds several entries; their conditions need not be identical. Equal values may be shown once. Read-outs that look alike come from different tables or passages of the source.

Tests used:
Assay type in all cases: cell-based, rat
[1] = tested on: T1, GABAARs; experiment: Whole-cell patch-clamp, cultured hippocampal neurons, acute drug application
T1 construct: DHM-enhanced Itonic; EC50 on GABAAR-mediated Itonic; other: control (vehicle) cultured neurons, DIV14; other: cultured neurons with EtOH exposure/withdrawal (60 mM, 30 min, 24 hr); EtOH-potentiated Itonic; GABAAR-mediated Ito
Experimental: (§1) Hippocampal neurons from embryonic day 18 rats were prepared by papain dissociation (Worthington Biochemical, Lakewood, N.J.) and cultured in neurobasal medium and B27 supplement (Invitrogen). Cultures were kept at 37° C. in a 5% CO2 humidified incubator as described previously. See Shen, Y., et al. (2011) Mol Pharmacol 79:432-442.
(§2) Hippocampal neurons from embryonic day 18 SD rats were prepared by papain dissociation (Worthington Biochemical, Lakewood, N.J.) and cultured in neurobasal medium (Invitrogen) and B27 supplement as previously reported. See Stowell J N and Craig A M (1999) Neuron 22(3):525-536. Briefly, embryos were removed from maternal rats anesthetized with isoflurane and euthanized by decapitation. Hippocampus were dissected and placed in Ca^2+- and Mg^2+-free HEPES-buffered Hank's buffered salt solution (pH 7.45). Tissues were dissociated by papain digestion followed by trituration through a Pasteur pipette and papain inhibitor treatment. Cells were pelleted and resuspended in neurobasal medium containing 2% B27 serum-free supplement, 100 U/ml penicillin, 100 μg/ml streptomycin, 0.5 mM glutamine (all from Invitrogen), and 10 μM glutamate (Sigma).
(§3) Dissociated neurons were then plated at a density of 0.3×10^5 cells/cm^2 onto 12 mm round coverslips in 24-well plates (for patch-clamp recording) and/or at a density of 0.5×10^5 cells/cm^2 in 6-well plates (for Western blot and biotinylation assays) coated with poly-D-lysine (Sigma, 50 μg/ml). Cultures were kept at 37° C. in a 5% CO2 humidified incubator. Thereafter, one third to half of the medium was replaced twice a week with neurobasal culture medium containing 2% B27 supplement, and 0.5 mM glutamine.
(§4) Control neurons were treated with corresponding vehicle as same procedure as EtOH-treated neurons. The concentration of 60 mM EtOH was selected in view of prior experiments. See Liang J et al (2007). Specifically, the concentration of 60 mM EtOH used to treat cultured neurons was chosen to match blood levels measured in adult rats after intoxication with gavage of 5 g/kg, which produced about 60 mM blood peak plasma [EtOH] lasting for about 2 to 3 hr and induced significant plasticity in GABAARs and tolerance.
(§5) Then, immediately before electrophysiological recording, cells grown on coverslips were transferred to a perfusion chamber (Warner Instruments) and visualized with an inverted microscope (TE200, Nikon). Whole-cell patch-clamp recordings were obtained from cultured neurons under voltage-clamp mode at room temperature (22-25° C.), at a holding potential of −70 mV. Cells were perfused with an extracellular solution (137 mM NaCl, 5 mM KCl, 2 mM CaCl2, 1 mM MgCl2, 20 mM glucose and 10 mM HEPES (310-320 Osm, pH adjusted to 7.40 with NaOH)). Glass pipettes were filled with the same internal solution as that in slice recordings, with an input resistance of 4-7 MΩ. GABAAR-mediated mIPSCs were recorded using the same pharmacological method as mentioned above. […] Electrical signals were amplified using a Multiclamp 200 B amplifier (Molecular Devices, USA). After establishing the whole-cell configuration, at least 10 min were allowed to elapse before the application of drug to allow the membrane patch to stabilize and exchange of ions between the recording electrode and the cytosol to occur. Data were acquired with pClamp software (Version 10.0, Molecular Devices, USA), digitized at 20 kHz (Digidata 1440A, Molecular Devices), and analyzed using the Clampfit software (Version 10.0, Molecular Devices) and the Mini Analysis Program (versions 6.0.7, Synaptosoft, Decatur, Ga.) using methods known in the art. See Hamann M, et al. (2002) Neuron 33(4):625-633; Stell B M and Mody I (2002) J Neurosci 22(10): RC223; and Liang (2007).

[2] = tested on: T2, GABAARs; experiment: as above; conditions: DHM 0.3 and 1 μM co-applied with GABA (b110 prints 1 M)
T2 construct: other: in the presence of 60 mM EtOH, rat hippocampal; shift of the GABA concentration-response curve
Experimental: as §1, §2, §3, §4, §5

[3] = tested on: T3, GABAARs; experiment: as above
T3 construct: DHM-enhanced mIPSCs; other: control (vehicle) cultured neurons, DIV14; other: cultured neurons with EtOH exposure/withdrawal (60 mM, 30 min, 24 hr); EtOH-potentiated mIPSCs; effect on post-synaptic currents (mIPSCs); other: comparative experiments, rat hippocampal slices
Experimental: as §1, §2, §3, §4, §5

[4] = tested on: GABAARs; experiment: Whole-cell patch-clamp, cultured hippocampal neurons 24 h after EtOH/DHM exposure; conditions: 24 h withdrawal
Experimental: as §4, §5

[5] = tested on: GABAAR α4 subunit; experiment: Cell-surface biotinylation and Western blot in cultured hippocampal neurons; conditions: 24 hr
Experimental: Western blots of the cultured neurons were performed and examined as described herein. Biotinylation assays for GABAARs of the cultured neurons were performed as described previously. See Chung W O, et al. (2000) Infect Immun 68(12):6758-6762. Briefly, the neurons in culture dishes were placed on ice and washed twice with ice cold PBS. Then the neurons were incubated for 30 min on ice with PBS containing 1 mg/ml sulfo-NHS-LC-biotin (ProteoChem). After quenching the biotin-reaction with Tris-buffered saline (TBS), neurons were lysed in 150 μl of modified RIPA-buffer (20 mM Tris-HCl (pH 7.5), 150 mM NaCl, 1 mM Na2 EDTA, 1 mM EGTA, 1% NP-40, 1% sodium deoxycholate, 2.5 mM sodium pyrophosphate, 1 mM b-glycerophosphate, 1 mM Na3VO4, and 1 μg/ml leupeptin). The homogenates were centrifuged for 15 min (14,000×g, 4° C.). An aliquot (10%) of the supernatant was removed to measure β-actin. The remaining supernatant was incubated with 60 μl of 50% neutravidin agarose (Pierce Chemical Company) for 4 hr at 4° C. and washed four times with lysis buffer. Agarose-bound proteins were taken up in 20 μl of SDS sample buffer and boiled. Western blots were performed as mentioned above.
The surface expression of α4 subunit in cultured neurons was measured using cell-surface biotinylation followed by Western blot analysis.

[6] = neurons treated with EtOH 60 mM + DHM

EC50 ([1]; control (vehicle) cultured neurons, DIV14, read-out: EC50 on GABAAR-mediated Itonic): ~0.2 µM
EC50 ([1]; cultured neurons with EtOH exposure/withdrawal (60 mM, 30 min, 24 hr), read-out: EC50 on Itonic): ~0.2 µM and ~0.3 µM
EC50 ([3]; control (vehicle) cultured neurons, DIV14, read-out: EC50 on mIPSCs): ~0.2 µM and ~0.3 µM
Structure (SMILES): O=C1c2c(O)cc(O)cc2O[C@H](c2cc(O)c(O)c(O)c2)[C@H]1O [DHM, (2R,3R)-3,5,7-trihydroxy-2-(3,4,5-trihydroxyphenyl)-2,3-dihydrochromen-4-one]
Itonic ([1]; 0.3 μM DHM, cultured hippocampal neurons): 21.0±2.3 pA
Itonic ([1]; 1 μM DHM, cultured hippocampal neurons DIV13-14): 194.9±13.6 % of control
shift of the GABA concentration-response curve [2]: left shift
mIPSCs (area) ([3]; 1 μM DHM, cultured hippocampal neurons): 181.8±9.2 % of control and 128.2±8.3 % of control
GABAAR function after exposure/withdrawal ([4]; DHM alone exposure): did not alter GABAAR function
Itonic magnitude after acute EtOH (60 mM) [4, 6]: 25.2±1.2 pA
averaged Itonic magnitude [4, 6]: 11.2±0.6 pA
mIPSC potentiation by EtOH [4, 6]: 8.3±9.4%
α4 surface expression ([5]; neurons treated with DHM): 125.0±27.3 % of control
α4 subunit surface expression ([5]; neurons treated with EtOH+DHM): 123.0±8.4 % of control
